In patent US6903117B2, “Indole derivatives for the treatment of osteoporosis” (Nikem Research S.R.L., priority 1996, dated 2005):
pIC50: −log10 of the molar value. Structures can show the parent of a compound that is named as a salt. Where two headings read alike, the source gives them in different places.

What was measured:
human osteoclasts = experiment: Human Osteoclast Resorption Assay; assay type: cell-based; details: human osteoclasts on bone slices
Procedure: 1) Bone resorption by disaggregated rat osteoclasts can be assessed as described previously in the literature [T. J. Chambers et al., Endocrinology, 1985, 116, 234]. Briefly, osteoclasts were mechanically disaggregated from neonatal rat long bones into Hepes-buffered medium 199 (Flow, UK). The suspension was agitated with a pipette, and the larger fragments were allowed to settle for 30 sec. The cells were then added to two wells of a multiwell dish containing bone slices (each measuring 12 mm^2). After 15 min at 37° C. the bone slices were removed, washed in medium 199 and placed in individual wells of a 96-well plate. […] The number of osteoclasts and bone resorption were quantified by confocal laser scanning microscopy (CLSM): the bone slices were fixed with 2% glutaraldehyde in 0.2 M cacodylate buffer and the osteoclasts on each bone slice were stained for tartrate-resistant acid phosphatase. […] The number and the size of the osteoclastic excavations, the plain area and the volume of bone resorbed was recorded. Results were expressed as mean pit number per bone slice, mean pit number per osteoclast, mean area per osteoclast or mean volume per osteoclast.
2) Bone resorption by human osteoclasts can be assessed using a modification of the method above. […] Bone slices were then treated and analysed as described above for the rat osteoclast assay.

[1] = molecular target: bafilomycin-sensitive ATPase in chicken osteoclasts (Gallus gallus, UniProt A0A8V0Z1D5+Q9I8C8); experiment: Inhibition of bafilomycin-sensitive ATPase in chicken osteoclasts; assay type: biochemical
Procedure: Vesicles were prepared from medullar bone obtained from tibiae and femurs of egg-laying hens which were calcium-starved for at least 15 days. Briefly, bone fragments were scraped with a 24 scalpel blade, suspended in 40 ml of isolation medium (0.2 M sucrose, 50 mM KCl, 10 mM Hepes, 1 mM EGTA, 2 mM dithiotheitrol, pH 7.4) and filtered through a 100 μm pore size nylon mesh. The whole procedure was performed at 4° C. After homogenisation in a potter (20 strokes) in 40 ml of isolation medium an initial centrifugation (6,500×gmax×20 min) was performed to remove mitochondria and lysosomes. The supernatant was centrifuged at 100,000×gmax for 1 hr and the pellet was collected in 1 ml of isolation medium, divided into 200 μl aliquots, immediately frozen in liquid nitrogen and stored at −80° C. The protein content was determined using a Biorad colourimetric kit according to Bradford [M. Bradford, Anal. Biochem., 72, 248 (1976)]. For the proton transport assay, 5-10 μl of membranes were used.
Purification of osteoclast membranes. 1 ml of crude microsomal vesicles prepared above were applied (about 0.2 ml per tube) on the top of a sucrose step-gradient consisting of 3.5 ml of 15%, 30% and 45% (w/w) sucrose in isolation medium and centrifuged at 280,000 gmax for 2 hours (SW 41 Ti rotor). After centrifugation the 30-45% sucrose interfaces were collected, diluted approx. 20-fold in isolation medium and pelletted at 100,000 gmax for 1 hour (SW 28 rotor). The pellet was then resuspended in 1 ml of isolation medium, aliquoted and frozen in liquid N2 and stored at −80° C. until used.
Inhibition of bafilomycin-sensitive ATPase activity was assessed in purified membrane vesicles by measuring the release of inorganic phosphate (Pi) during 30 min of incubation at 37° C. in a 96-well plate either in the presence or in the absence of bafilomycin A1. The reaction medium contained 1 mM ATP, 10 mM HEPES-Tris pH 8, 50 mM KCl, 5 uM valinomycin, 5 uM nigericin, 1 mM CDTA-Tris, 100 uM ammonium molybdate, 0.2 M sucrose and membranes (20 ug protein/ml). The reaction was initiated by MgSO4 (8-arm pipette) and stopped, after 30 min, by addition of 4 volumes of the malachite green reagent (96-arm pipette) prepared according to Chan [Anal. Biochem. 157, 375 (1986)]. Absorbance at 650 nm was measured after 2 min using a microplate reader. Results are expressed as μmol (Pi)×mg protein^−1×hour^−1 and, for each experiment, represent the mean±sem of triplicates.

[2] = system: ovariectomised mature rats; experiment: Prevention of bone loss in ovariectomised mature rats; assay type: in vivo, rat; details: % prevention of bone loss versus vehicle treated animals
Excerpt: Prevention of bone loss in ovariectomised mature rats. The methodology employed is based on that described by Wronsky et al. [J. Bone Min. Res., 6, 387 (1991)]. The bone loss, prevalently cancellous, occuring after the surgery is monitored by dual emission X-ray absorptiometry (DEXA) measurements of bone mineral density (BMD) of long bones and by HPLC measurements of urinary levels of products of bone collagen breakdown, such as the cross-link residues pyridinoline (PYD), deoxypyridinoline (DPD) and lysine glycosides, i.e. galactosyl-hydroxylysine (GHYL) and glucosyl-galactosyl-hydroxylysine (GGHYL). Groups of 7-10 female Sprague-Dawley rats, about 90 days old and weighing 200-250 g are used. Rats are anesthetised by sodium pentobarbital (35 mg/kg i.v.), laparotomy is performed and ovaries are bilaterally removed. Wounds are adequately disinfected and sutured. A group is sham operated. […] Before and at the end of the experimental period, the bone metaphyseal mineral densities of left distal femur and proximal tibia were evaluated in vivo using lightly anaesthetised animals. Results are expressed as % of prevention of bone loss versus vehicle treated animals, using the following equation, where BMD indicates the bone mineral density at the end of the experimental period and is expressed as the percent of pre-ovariectomy baseline: [formula] […]

osteoclast proton pump = details: avian osteoclast membrane vesicles; cited from earlier work
osteoclast cultures = details: cited from earlier work
[3] = chicken osteoclast membranes, read-out: IC50 (nM) ATPase assay
[4] = read-out: IC50 (nM) ATPase assay, chicken osteoclast membranes

Sequence of bafilomycin-sensitive ATPase in chicken osteoclasts (Q9I8C8 entry or part of it): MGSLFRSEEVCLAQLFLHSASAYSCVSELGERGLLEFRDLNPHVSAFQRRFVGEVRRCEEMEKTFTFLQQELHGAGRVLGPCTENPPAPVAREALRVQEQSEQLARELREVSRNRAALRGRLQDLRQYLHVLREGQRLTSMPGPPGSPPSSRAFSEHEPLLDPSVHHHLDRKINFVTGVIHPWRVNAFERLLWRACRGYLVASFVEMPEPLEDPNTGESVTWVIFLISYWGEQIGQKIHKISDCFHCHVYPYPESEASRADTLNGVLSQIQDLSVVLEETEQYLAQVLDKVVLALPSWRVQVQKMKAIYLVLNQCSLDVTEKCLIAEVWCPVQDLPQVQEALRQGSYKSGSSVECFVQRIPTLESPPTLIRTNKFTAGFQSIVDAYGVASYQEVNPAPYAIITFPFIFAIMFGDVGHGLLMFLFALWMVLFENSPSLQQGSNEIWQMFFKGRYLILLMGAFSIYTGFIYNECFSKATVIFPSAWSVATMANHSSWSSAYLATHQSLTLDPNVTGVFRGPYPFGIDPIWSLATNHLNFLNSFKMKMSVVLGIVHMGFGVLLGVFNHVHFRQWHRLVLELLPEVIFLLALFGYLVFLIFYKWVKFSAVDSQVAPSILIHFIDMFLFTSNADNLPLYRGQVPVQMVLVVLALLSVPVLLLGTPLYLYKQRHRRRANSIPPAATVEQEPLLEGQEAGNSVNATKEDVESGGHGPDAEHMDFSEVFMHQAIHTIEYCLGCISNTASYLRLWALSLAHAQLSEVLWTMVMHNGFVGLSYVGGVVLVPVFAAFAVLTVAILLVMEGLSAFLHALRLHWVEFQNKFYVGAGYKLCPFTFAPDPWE
Sequence of bafilomycin-sensitive ATPase in chicken osteoclasts (P49712 whole entry, further chain, the tested form may be a part): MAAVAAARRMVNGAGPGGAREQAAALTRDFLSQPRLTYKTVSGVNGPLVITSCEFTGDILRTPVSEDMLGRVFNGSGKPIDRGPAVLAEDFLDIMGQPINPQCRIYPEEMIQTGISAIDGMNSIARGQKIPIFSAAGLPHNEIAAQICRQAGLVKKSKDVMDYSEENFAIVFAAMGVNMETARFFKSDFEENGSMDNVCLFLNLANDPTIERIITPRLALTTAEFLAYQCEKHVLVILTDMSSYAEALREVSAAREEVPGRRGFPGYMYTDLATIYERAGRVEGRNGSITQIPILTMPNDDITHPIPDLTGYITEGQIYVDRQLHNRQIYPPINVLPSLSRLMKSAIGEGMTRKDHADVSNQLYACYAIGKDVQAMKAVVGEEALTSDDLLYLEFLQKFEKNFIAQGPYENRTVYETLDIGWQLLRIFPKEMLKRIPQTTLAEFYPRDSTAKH
Sequence of bafilomycin-sensitive ATPase in chicken osteoclasts (Q5ZHL0 whole entry, further chain, the tested form may be a part): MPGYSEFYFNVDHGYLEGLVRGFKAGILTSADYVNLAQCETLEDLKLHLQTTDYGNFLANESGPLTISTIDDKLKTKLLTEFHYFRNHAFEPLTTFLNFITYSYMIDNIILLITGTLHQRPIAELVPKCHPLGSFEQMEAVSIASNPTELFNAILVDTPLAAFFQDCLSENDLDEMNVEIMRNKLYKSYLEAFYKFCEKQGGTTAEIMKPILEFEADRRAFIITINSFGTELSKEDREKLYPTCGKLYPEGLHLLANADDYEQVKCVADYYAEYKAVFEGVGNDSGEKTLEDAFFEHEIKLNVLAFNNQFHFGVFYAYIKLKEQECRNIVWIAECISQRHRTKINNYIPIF
Sequence of bafilomycin-sensitive ATPase in chicken osteoclasts (Q90647 whole entry, further chain, the tested form may be a part): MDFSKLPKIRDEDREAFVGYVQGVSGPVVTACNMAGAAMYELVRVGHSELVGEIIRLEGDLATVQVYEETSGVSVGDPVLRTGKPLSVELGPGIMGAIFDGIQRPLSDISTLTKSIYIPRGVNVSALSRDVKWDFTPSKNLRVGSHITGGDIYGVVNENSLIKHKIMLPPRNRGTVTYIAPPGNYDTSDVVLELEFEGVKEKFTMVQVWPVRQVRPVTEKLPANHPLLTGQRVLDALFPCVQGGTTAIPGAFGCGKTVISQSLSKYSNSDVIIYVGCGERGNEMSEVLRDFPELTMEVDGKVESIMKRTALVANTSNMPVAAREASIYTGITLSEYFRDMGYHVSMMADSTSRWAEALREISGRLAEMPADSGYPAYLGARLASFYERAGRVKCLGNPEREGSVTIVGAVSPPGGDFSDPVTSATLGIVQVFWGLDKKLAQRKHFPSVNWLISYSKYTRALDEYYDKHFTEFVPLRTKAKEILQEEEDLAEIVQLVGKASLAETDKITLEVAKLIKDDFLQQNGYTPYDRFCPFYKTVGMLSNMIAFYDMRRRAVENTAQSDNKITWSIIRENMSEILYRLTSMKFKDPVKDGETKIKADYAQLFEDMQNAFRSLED
Sequence of bafilomycin-sensitive ATPase in chicken osteoclasts (A0A8V0Z1D5 entry or part of it): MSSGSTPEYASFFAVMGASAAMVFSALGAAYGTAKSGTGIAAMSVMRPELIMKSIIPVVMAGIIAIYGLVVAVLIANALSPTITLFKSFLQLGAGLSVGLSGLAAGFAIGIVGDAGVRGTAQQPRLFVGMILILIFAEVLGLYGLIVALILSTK

| Compound | melting point | IC50 [1, 3] | inhibition of proton transport by the osteoclast proton pump (osteoclast proton pump) | other results |
| --- | --- | --- | --- | --- |
| COC(=CC=Cc1cc2cc(Cl)c(Cl)cc2[nH]1)C(=O)NCCCN1C(C)CN(c2ncccn2)CC1C (stereo not shown) (as salt: hydrochloride) [Example 62, (2Z,4E)-5-(5,6-Dichloro-1H-indol-2-yl)-N-[3-[2,6-dimethyl-4-(2-pyrimidinyl)plperazin-1-yl]propyl]-2-methoxy-2,4-pentadienamide hydrochloride] | 245 °C |  |  |  |
| CO/C(=C\C=C\c1cc2cc(Cl)c(Cl)cc2[nH]1)C(=O)NC1CC(C)(C)N(C)C(C)(C)C1 [Example 1, (2Z,4E)-5-(5,6-Dichloro-1H-indol-2-yl)-2-methoxy-N-(1,2,2,6,6-pentamethylpiperidin-4-yl)-2,4-pentadienamide] |  | 24 nM |  | pIC50 (human osteoclasts): 8.47; Protection of bone loss in ovariectomised mature rats at 10 mg/kg p.o. [2]: 76% |
| CO/C(=C\C=C\c1cc2cc(Cl)c(Cl)cc2[nH]1)C(=O)NC1CCCC(N(C)C)C1 (stereo not shown) [Example 61, (2Z,4E)-5-(5,6-Dichloro-1H-indol-2-yl)-N-(3-dimethylamino-cyclohexyl)-2-methoxy-2,4-pentadienamide] | 200 to 201 °C | 41 nM |  |  |
| COC(=CC=Cc1cc2cc(Cl)c(Cl)cc2[nH]1)C(=O)NCCCN1C(C)CN(c2ncccn2)CC1C (stereo not shown) [Example 62, (2Z,4E)-5-(5,6-Dichloro-1H-indol-2-yl)-N-[3-[2,6-dimethyl-4-(2-pyrimidinyl)plperazin-1-yl]propyl]-2-methoxy-2,4-pentadienamide hydrochloride] |  | 30 nM |  |  |
| CO/C(=C\C=C\c1cc2cc(Cl)c(Cl)cc2[nH]1)C(=O)NCCCN1CCN(c2ccccc2)CC1 [Example 64, (2Z,4E)-5-(5,6-Dichloro-1H-indol-2-yl)-2-methoxy-N-(3-[-4-(phenyl)piperazin-1-yl]propyl] 2,4-pentadienamide] | 223 to 225 °C |  |  | IC50 [1, 4]: 67 nM |
| CO/C(=C\C=C\c1cc2cc(Cl)c(Cl)cc2[nH]1)C(=O)NCCCN1CCN(c2cccc(Cl)c2)CC1 [Example 68, (2Z,4E)-5-(5,6-Dichloro-1H-indol-2-yl)-N-[3-[-4-(3-chlorophenyl)piperazin-1-yl]propyl]-2-methoxy-2,4 pentadienamide] | 192 to 193 °C |  |  | IC50 [1, 4]: 18 nM |
| CO/C(=C\C=C\c1cc2cc(Cl)c(Cl)cc2[nH]1)C(=O)NCCCN1CCCN(c2ncccn2)CC1 [Example 74, (2Z,4E)-5-(5,6-Dichloro-1H-indol-2-yl)-N-[3-[4-(2-pyrimidinyl)homopiperazin-1-yl]propyl]-2-methoxy-2,4-pentadienamide] | 220 to 222 °C | 42 nM |  |  |
| CO/C(=C\C=C\c1cc2cc(Cl)c(Cl)cc2[nH]1)C(=O)NCCCN1CCN(c2ccccn2)CC1 [Example 75, (2Z,4E)-5-(5,6-Dichloro-1H-indol-2-yl)-N-[3-[4-(2-pyridyl)piperazin-1-yl]propyl]-2-methoxy-2,4-pentadienamide] | 219 to 220 °C | 30 nM |  |  |
| CCN1C(=O)C=CC1=O [N-ethylmaleimide] |  |  | inhibited |  |
| Cc1nc2c(OCc3ccccc3)cccn2c1CC#N [SCH 28080] |  |  | not inhibited |  |
| CO/C1=C\C(C)=C\[C@@H](C)[C@@H](O)[C@@H](C)C/C(C)=C/C=C/[C@H](OC)[C@@H]([C@@H](C)[C@@H](O)[C@H](C)[C@@]2(O)C[C@@H](O)[C@H](C)[C@@H](C(C)C)O2)OC1=O [bafilomycin A1] |  |  | inhibited | inhibition of bone resorption in osteoclast cultures (osteoclast cultures): able to inhibit |
| C[C@@H]1O[C@@H](O[C@H]2C[C@@H](O)[C@]3(CO)[C@H]4[C@H](O)C[C@]5(C)[C@@H](C6=CC(=O)OC6)CC[C@]5(O)[C@@H]4CC[C@]3(O)C2)[C@H](O)[C@H](O)[C@H]1O [ouabain] |  |  | not inhibited |  |
| [Na+].[Na+].[Na+].[O]=[V]([O-])([O-])[O-] [sodium orthovanadate] |  |  | not inhibited |  |
| (2Z,4E)-5-(5,6-Dichloro-1H- indol-2-yl)-N-(2a beta, 4a alpha, 6 beta, 7a alpha- decahydro-pyrrolo[2.1.5- cd]indolizyn-6-yl)-2- methoxy-2,4- pentadienamide [Example 55] |  | 23 nM |  |  |
